Values joined by “and” are separate entries in the source; they are usually repeats but may differ in a detail not shown here. Equal entries are not always repeated.
Assays:
[1] = test system: cell membranes or tight junctions; format: cell-based
Description: Diketopiperazine facilitate transcellular transport of biologically active agents across biological tissues however they are not penetration enhancers. Penetration enhancers are compounds that improve drug movement across biological tissues by disrupting cell membranes. Examples of penetration enhancers are surfactants and soaps. […] Diketopiperazine/insulin powder compositions are soluble at the physiological pH of the lung surface and dissolve rapidly after inhalation. Once dissolved, the DKP facilitates passive transcellular transport of the insulin.

[2] = Laser diffraction particle size analysis; format: physicochemical
Description: The microparticles described in Examples 6 and 7 were subjected to laser diffraction particle size analysis (SympatecGmbH, Germany) (FIGS. 1A and 1B).

| SMILES | cell viability [1] | disruption of cell membranes or tight junctions [1] | Fine Particle Fraction (<5.8 μm) [2] | Particle Size 0.5-5 μm [2] | Particle Size <3 μm [2] | VMD (volume median diameter) [2] | X10 [2] | X16 [2] | X50 [2] | X84 [2] | X90 [2] | X99 [2] |
| --- | --- | --- | --- | --- | --- | --- | --- | --- | --- | --- | --- | --- |
| O=C(O)/C=C/C(=O)NCCCCC1NC(=O)C(CCCCNC(=O)/C=C/C(=O)O)NC1=O (stereo not drawn) [FDKP, 3,6-di(fumaryl-4-aminobutyl)-2,5-diketopiperazine] | does not compromise cell viability | does not disrupt cell membranes or tight junctions | – | – | – | – | – | – | – | – | – | – |
| O=C([O-])C=CC(=O)NCCCCC1NC(=O)C(CCCCNC(=O)C=CC(=O)[O-])NC1=O.[Na+].[Na+] (stereo not drawn) [Preparation A] | – | – | 91.46% and 86.01% | 87.91% and 80.13% | 53.39% and 47.37% | 3.70 μm and 3.76 μm | 1.60 μm and 1.55 μm | 1.44 μm and 1.36 μm | 2.89 μm and 3.11 μm | 4.60 μm and 5.53 μm | 5.47 μm and 6.64 μm | 19.20 μm and 14.04 μm |
